From patent US8263749B2, “Imatinib immunoassay” (Saladax Biomedical Inc., priority 2009, dated 2012)

Tests used:
Assay type in all cases: binding, mouse
[1] = test system: polyclonal antibodies to imatinib (Example 8a); assay: Indirect competitive microtiter plate immunoassay (ELISA), cross-reactivity with polyclonal antibodies to imatinib; conditions: for Cross-reactivity of competitive immunoassay: ratio of IC50 imatinib to IC50 analyte
[2] = test system: monoclonal antibody 9F2-4-29 to imatinib; assay: Indirect competitive microtiter plate immunoassay (ELISA), cross-reactivity with monoclonal antibody 9F2-4-29; conditions: monoclonal antibody number 9F2-4-29; ratio of IC50 imatinib to IC50 analyte
Protocol: (§1) Mice from example 8a that were immunized with imatinib-KLH prepared in 6b were used to produce monoclonal antibodies. For monoclonal antibodies starting three days before the fusion, the mice were injected i.p. with 400 μg (3 days before fusion), 200 μg (2 days before fusion), and 200 μg (1 day before fusion) of imatinib-KLH in PSS/DMSO prepared in example 6b. Spleen cells were isolated from the selected mice and fused with 2×10^7 SP2/0 cells with 50% polyethylene glycol 1500 according to the method of Coligan, J. E. et al., eds., Current Protocols in Immunology, 2.5.1-2.5.8, (1992), Wiley & Sons, NY. The fused cells were plated on ten 96-well plates in DMEM/F12 supplemented with 20% FetalClone I, 2% L-glutamine (100 mM) and 2% 50× HAT. Two to three weeks later, the hybridoma supernatant was assayed for the presence of anti-imatinib antibodies by ELISA (as in example fob). […] Clones positive by ELISA were subcloned twice by limiting dilution according to the method disclosed in Coligan, J. E. et al., eds., Current Protocols in Immunology, 2.5.8-2.5.17, (1992), Wiley & Sons, NY. […] These monoclonal antibodies were tested for imatinib binding and cross-reactivity to a major imatinib metabolite, N-desmethyl imatinib, by indirect competitive microtiter plate assay as described in example 11. […]

[3] = test system: monoclonal antibody 9F2-4-31 to imatinib; assay: Indirect competitive microtiter plate immunoassay (ELISA), cross-reactivity with monoclonal antibody 9F2-4-31; conditions: monoclonal antibody number 9F2-4-31; ratio of IC50 imatinib to IC50 analyte
Protocol: as §1

[4] = test system: selected monoclonal antibodies to imatinib (Example 8b); assay: Indirect competitive microtiter plate immunoassay (ELISA), cross-reactivity with selected monoclonal antibodies; conditions: measured with selected monoclonal antibodies
Protocol: Mice from example 8a that were immunized with imatinib-KLH prepared in 6b were used to produce monoclonal antibodies. For monoclonal antibodies starting three days before the fusion, the mice were injected i.p. with 400 μg (3 days before fusion), 200 μg (2 days before fusion), and 200 μg (1 day before fusion) of imatinib-KLH in PSS/DMSO prepared in example 6b. Spleen cells were isolated from the selected mice and fused with 2×10^7 SP2/0 cells with 50% polyethylene glycol 1500 according to the method of Coligan, J. E. et al., eds., Current Protocols in Immunology, 2.5.1-2.5.8, (1992), Wiley & Sons, NY. The fused cells were plated on ten 96-well plates in DMEM/F12 supplemented with 20% FetalClone I, 2% L-glutamine (100 mM) and 2% 50× HAT. Two to three weeks later, the hybridoma supernatant was assayed for the presence of anti-imatinib antibodies by ELISA (as in example fob). Cells from the wells that gave positive ELISA results (example lob) were expanded to 24 well plates. Clones positive by ELISA were subcloned twice by limiting dilution according to the method disclosed in Coligan, J. E. et al., eds., Current Protocols in Immunology, 2.5.8-2.5.17, (1992), Wiley & Sons, NY. Hybridoma culture supernatants containing monoclonal antibody from selected subclones were confirmed for imatinib binding by a competitive ELISA (example 11). […]

antibodies to imatinib = assay: Immunoassay reactivity of the antibodies produced in accordance with the invention (polyclonal and monoclonal); conditions: summary of Tables I and II
Protocol: Initial doses, bleedings and booster shots can be given according to accepted protocols for eliciting immune responses in animals, e.g., in a preferred embodiment mice received an initial dose of 100 ug immunogen/mouse, i.p. and two or more subsequent booster shots of between 50 and 100 ug immunogen/mouse over a six month period.
The ELISA method for determining IC50 values and cross-reactivity was performed with the microtiter plates that were sensitized with imatinib-BSA described in Examples 9. Analytes—imatinib and N-desmethyl imatinib were diluted in diH2O over a concentration range of 10 to 1,000,000 ng/mL. […] The assays were all performed by diluting the concentration of the antibodies in each of the wells to the titer determined in Example 10a. […] Following the incubation for color development, 50 of stop solution (1.5% sodium fluoride in di H2O) was added to each well to stop the color development and after 20 seconds of shaking the absorbance was determined at 650 nm (Molecular Devices Plate Reader). The amount of antibody in a well was proportional to the absorbance measured and inversely proportional to the amount of imatinib in the sample. The IC50's of imatinib and N-desmethyl imatinib were determined by constructing dose-response curves with the absorbance in the wells plotted versus analyte concentration in the wells. […]

[5] = polyclonal Bleed # 1, immunogen of example 6b
[6] = polyclonal Bleed # 2, immunogen of example 6b
[7] = polyclonal Bleed # 3, immunogen of example 6b
[8] = polyclonal Bleed # 4, immunogen of example 6a
[9] = polyclonal Bleed # 5, immunogen of example 6a

SMILES | percent cross-reactivities relative to imatinib ([1]; measured with this pool of (polyclonal) antibodies) | Cross-reactivity of competitive immunoassay [1, 5] [%] | Cross-reactivity of competitive immunoassay [1, 6] [%] | Cross-reactivity of competitive immunoassay [1, 7] [%] | Cross-reactivity of competitive immunoassay [1, 8] [%] | Cross-reactivity of competitive immunoassay [1, 9] [%] | Cross-reactivity of competitive immunoassay [2] [%] | Cross-reactivity of competitive immunoassay [3] [%] | percent cross-reactivities relative to imatinib [4] | reactivity with the antibodies (antibodies to imatinib)
Cc1ccc(NC(=O)c2ccc(CN3CCNCC3)cc2)cc1Nc1nccc(-c2cccnc2)n1 [N-desmethyl imatinib] | less than or equal to 7% | 1 | 5 | 2 | 7 | 1 | 2.7 | 3.2 | less than 4% | substantially non-reactive
Cc1ccc(NC(=O)c2ccc(CN3CCN(C)CC3)cc2)cc1Nc1nccc(-c2cccnc2)n1 [Imatinib] |  | 100 | 100 | 100 | 100 | 100 | 100 | 100 |  | 
